Assay results as given in patent publication US20170022171A1, “2,5-DISUBSTITUTED CYCLOPENTANECARBOXYLIC ACIDS AND THEIR USE” (Bayer Pharma Aktiengesellschaft, priority 2014, published 2017).

Legend:
Type in all cases: biochemical
mouse MMP-9 = target: T1, mouse MMP-9 (Mus musculus, UniProt P41245); test: In vitro mouse MMP-9 inhibition test
T1 construct: purchased R&D Systems 909-MP
Excerpt: (§1) The MMP-mediated amidolytic cleavage of a suitable peptide substrate leads to an increase in fluorescent light here too. The signal intensity of the fluorescent light is directly proportional to the enzyme activity. The active concentration of a test compound at which half the enzyme is inhibited (50% signal intensity of the fluorescent light) is reported as the IC50 value.
Recombinant mouse MMP-9 (from R&D Systems, 909-MP) is chemically activated in accordance with the manufacturer's instructions using APMA. 1 μl of the test compound to be analysed (as a solution in DMSO, suitable concentrations, for example, 1 nM to 30 μM) is pipetted into 24 μl of activated enzyme (final concentration, for example, 0.1 nM) in reaction buffer (50 mM Tris/HCl pH 7.5, 10 mM CaCl2, 150 mM NaCl, 0.05% Brij®-35) in a white 384-hole microtiter plate (MTP). The enzymatic reaction is started by adding the intramolecularly quenched Mca-Pro-Leu-Gly-Leu-Dpa(Dnp)-Ala-Arg-NH2 substrate (final concentration, for example, 5 μM; R&D Systems, ES-001), so as to result in a total test volume of 50 The course of the MMP-9 reaction is measured by measuring the fluorescence intensity (excitation 320 nm, emission 410 nm) over a suitable period of time (for example over 120 min at a temperature of 32° C.).

mouse MMP-7 = target: T2, mouse MMP-7 (Mus musculus, UniProt Q10738); test: In vitro mouse MMP-7 inhibition test
T2 construct: purchased R&D Systems 2967-MP
T2 sequence (Q10738 95-264): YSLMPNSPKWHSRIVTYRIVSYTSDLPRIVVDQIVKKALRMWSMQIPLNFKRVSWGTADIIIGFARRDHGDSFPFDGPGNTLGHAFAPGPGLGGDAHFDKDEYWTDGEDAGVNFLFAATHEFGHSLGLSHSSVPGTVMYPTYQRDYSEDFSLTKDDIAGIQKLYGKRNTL
Excerpt: as §1
(§2) Recombinant mouse MMP-7 (from R&D Systems, 2967-MP) is chemically activated in accordance with the manufacturer's instructions using APMA. 1 μl of the test compound to be analysed (as a solution in DMSO, suitable concentrations, for example, 1 nM to 30 μM) is pipetted into 24 μl of activated enzyme (final concentration, for example, 0.5 nM) in reaction buffer (50 mM Tris/HCl pH 7.5, 10 mM CaCl2, 150 mM NaCl, 0.05% Brij®-35) in a white 384-hole microtiter plate (MTP). The enzymatic reaction is started by adding the intramolecularly quenched Mca-Lys-Pro-Leu-Gly-Leu-Dpa(Dnp)-Ala-Arg-NH2 substrate (final concentration, for example, 5 μM; R&D Systems, ES-010), so as to result in a total test volume of 50 μl. The course of the MMP-7 reaction is measured by measuring the fluorescence intensity (excitation 320 nm, emission 410 nm) over a suitable period of time (for example over 120 min at a temperature of 32° C.).

mouse MMP-8 = target: T3, mouse MMP-8 (Mus musculus, UniProt O70138); test: In vitro mouse MMP-8 inhibition test
T3 construct: purchased R&D Systems 2904-MP
Excerpt: as §1
as §2, with “MMP-8” for “MMP-7”, “2904-MP)” for “2967-MP)”, “2” for “0.5”

mouse MMP-12 = target: T4, mouse MMP-12 (Mus musculus, UniProt P34960); test: In vitro mouse MMP-12 inhibition test (standard or high-sensitivity)
T4 construct: purchased R&D Systems 3467-MP
Excerpt: as §1
as §2, with “MMP-12” for “MMP-7”, “3467-MP)” for “2967-MP)”, “autocatalytically” for “chemically”, “instructions.” for “instructions using APMA.”, “1” for “0.5”, “50” for “50 μl.”
In this case, an enzyme concentration ten times lower is used (final concentration, for example, 0.1 nM) in order to achieve an elevated test sensitivity. The incubation period chosen for the test is correspondingly longer (for example 16 hours).

mouse MMP-3 = target: T5, mouse MMP-3 (Mus musculus, UniProt P28862); test: In vitro mouse MMP-3 inhibition test
T5 construct: purchased R&D Systems 548-MP
Excerpt: as §1
as §2, with “MMP-3” for “MMP-7”, “548-MP)” for “2967-MP)”, “Mca-Arg-Pro-Lys-Pro-Val-Glu-Nval-Trp-Arg-Lys(Dnp)-NH2” for “Mca-Lys-Pro-Leu-Gly-Leu-Dpa(Dnp)-Ala-Arg-NH2”, “ES-002),” for “ES-010),”

T5 sequence (P28862 100-477): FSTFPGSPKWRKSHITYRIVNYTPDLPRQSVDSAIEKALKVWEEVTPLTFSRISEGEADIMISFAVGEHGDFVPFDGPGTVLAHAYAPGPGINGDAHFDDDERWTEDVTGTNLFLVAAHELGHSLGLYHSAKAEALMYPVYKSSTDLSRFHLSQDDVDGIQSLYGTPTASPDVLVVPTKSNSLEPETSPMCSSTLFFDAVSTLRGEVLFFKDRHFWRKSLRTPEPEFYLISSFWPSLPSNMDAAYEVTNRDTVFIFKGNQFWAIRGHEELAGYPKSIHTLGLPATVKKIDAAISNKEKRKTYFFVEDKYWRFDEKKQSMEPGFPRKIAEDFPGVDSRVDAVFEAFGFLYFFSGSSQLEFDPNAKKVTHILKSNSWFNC
T3 sequence (O70138 101-465): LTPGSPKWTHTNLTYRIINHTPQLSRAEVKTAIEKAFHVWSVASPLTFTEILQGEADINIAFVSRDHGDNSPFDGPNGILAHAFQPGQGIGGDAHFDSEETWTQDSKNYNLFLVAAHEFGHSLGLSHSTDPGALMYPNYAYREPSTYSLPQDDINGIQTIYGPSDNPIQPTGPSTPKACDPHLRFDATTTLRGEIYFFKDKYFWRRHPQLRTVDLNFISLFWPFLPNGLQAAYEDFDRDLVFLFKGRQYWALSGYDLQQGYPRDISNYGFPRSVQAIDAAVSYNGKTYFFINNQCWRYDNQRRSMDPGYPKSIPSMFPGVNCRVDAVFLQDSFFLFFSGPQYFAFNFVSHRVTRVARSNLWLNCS
T4 sequence (P34960 110-473): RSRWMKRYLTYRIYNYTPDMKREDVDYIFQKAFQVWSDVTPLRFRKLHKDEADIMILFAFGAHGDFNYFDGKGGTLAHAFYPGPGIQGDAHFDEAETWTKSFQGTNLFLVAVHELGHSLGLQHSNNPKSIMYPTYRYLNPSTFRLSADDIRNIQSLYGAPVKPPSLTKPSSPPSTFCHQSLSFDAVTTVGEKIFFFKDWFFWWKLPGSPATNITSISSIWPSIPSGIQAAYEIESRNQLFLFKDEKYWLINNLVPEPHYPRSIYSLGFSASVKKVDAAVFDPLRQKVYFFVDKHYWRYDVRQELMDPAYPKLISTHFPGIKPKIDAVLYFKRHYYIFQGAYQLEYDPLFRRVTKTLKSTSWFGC
T1 sequence (P41245 108-730): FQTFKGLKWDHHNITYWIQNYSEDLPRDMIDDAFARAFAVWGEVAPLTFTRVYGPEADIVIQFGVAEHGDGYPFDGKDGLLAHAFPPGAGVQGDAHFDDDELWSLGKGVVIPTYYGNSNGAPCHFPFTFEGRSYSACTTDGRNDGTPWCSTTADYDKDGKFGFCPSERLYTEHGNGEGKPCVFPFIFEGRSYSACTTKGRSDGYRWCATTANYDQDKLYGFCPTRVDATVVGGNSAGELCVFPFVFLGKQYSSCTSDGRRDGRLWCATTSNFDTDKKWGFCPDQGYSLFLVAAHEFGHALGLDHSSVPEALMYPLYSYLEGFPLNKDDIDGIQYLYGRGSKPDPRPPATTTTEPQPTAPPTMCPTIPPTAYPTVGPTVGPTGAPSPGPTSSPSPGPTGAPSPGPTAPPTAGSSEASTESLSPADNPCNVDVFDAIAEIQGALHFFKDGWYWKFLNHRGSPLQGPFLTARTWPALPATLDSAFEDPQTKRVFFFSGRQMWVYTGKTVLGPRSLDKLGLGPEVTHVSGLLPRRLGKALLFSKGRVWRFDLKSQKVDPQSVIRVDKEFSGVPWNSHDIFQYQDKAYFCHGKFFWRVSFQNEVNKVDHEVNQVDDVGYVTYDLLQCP

IC50 (mouse MMP-9) [nM]	IC50 (mouse MMP-7) [nM]	IC50 (mouse MMP-8) [nM]	IC50 (mouse MMP-12) [nM]	IC50 (mouse MMP-3) [nM]	SMILES
31	46	18	0.61	160	O=C(O)[C@H]1[C@H](Cn2nnc3ccccc3c2=O)CC[C@@H]1C(=O)c1ccc(OCc2ccc(F)cc2)cc1 (racemic) [Example 1, (+/−)-(1RS,2RS,5SR)-2-{4-[(4-Fluorobenzyl)oxy]benzoyl}-5-[(4-oxo-1,2,3-benzotriazin-3(4H)-yl)methyl]cyclopentanecarboxylic acid]
1100	140	1400	4.1	1300	O=C(O)[C@H]1[C@H](Cn2nnc3ccccc3c2=O)CC[C@@H]1C(=O)c1ccc(OCc2cccc(Cl)c2)cc1 (racemic) [Example 2, (+/−)-(1RS,2RS,5SR)-2-{4-[(3-Chlorobenzyl)oxy]benzoyl}-5-[(4-oxo-1,2,3-benzotriazin-3(4H)-yl)methyl]cyclopentanecarboxylic acid]
2600	430	810	7	1900	O=C(O)[C@H]1[C@H](Cn2nnc3ccccc3c2=O)CC[C@@H]1C(=O)c1ccc(OCc2ccc(Cl)c(Cl)c2)cc1 (racemic) [Example 3, (+/−)-(1RS,2RS,5SR)-2-{4-[(3,4-Dichlorobenzyl)oxy]benzoyl}-5-[(4-oxo-1,2,3-benzotriazin-3(4H)-yl)methyl]cyclopentanecarboxylic acid]
61	160	42	1.4	1300	O=C(O)[C@H]1[C@H](Cn2nnc3ccccc3c2=O)CC[C@@H]1C(=O)c1ccc(OCC2CCCC2)cc1 (racemic) [Example 4, (+/−)-(1RS,2RS,5SR)-2-[4-(Cyclopentylmethoxy)benzoyl]-5-[(4-oxo-1,2,3-benzotriazin-3(4H)-yl)methyl]cyclopentanecarboxylic acid]
930	160	360	1.8	1300	O=C(O)[C@H]1[C@H](Cn2nnc3ccccc3c2=O)CC[C@@H]1C(=O)c1ccc(OCCC2CCCCC2)cc1 (racemic) [Example 5, (+/−)-(1RS,2RS,5SR)-2-[4-(2-Cyclohexylethoxy)benzoyl]-5-[(4-oxo-1,2,3-benzotriazin-3(4H)-yl)methyl]cyclopentanecarboxylic acid]
61	23	18	1.8	590	O=C(O)[C@H]1[C@H](Cn2nnc3ccc(C(F)(F)F)cc3c2=O)CC[C@@H]1C(=O)c1ccc(OCc2ccccc2)cc1 (racemic) [Example 11, (+/−)-(1RS,2RS,5SR)-2-[4-(Benzyloxy)benzoyl]-5-{[4-oxo-6-(trifluoromethyl)-1,2,3-benzotriazin-3(4H)-yl]methyl}cyclopentanecarboxylic acid]
> 40000	230	640	11	9500	O=C(O)[C@H]1[C@H](Cn2nnc3ccc(C(F)(F)F)cc3c2=O)CC[C@@H]1C(=O)c1ccc(OCCCc2ccccc2)cc1 (racemic) [Example 39, (+/−)-(1RS,2SR,5RS)-2-{[4-Oxo-6-(trifluoromethyl)-1,2,3-benzotriazin-3(4H)-yl]methyl}-5-[4-(3-phenylpropoxy)benzoyl]cyclopentanecarboxylic acid]
640	220	25	1.9	180	O=C(O)[C@H]1[C@H](Cn2nnc3ccc(C(F)(F)F)cc3c2=O)CC[C@@H]1C(=O)c1ccc(OCC2CCCCC2)cc1 (racemic) [Example 40, (+/−)-(1RS,2RS,5SR)-2-[4-(Cyclohexylmethoxy)benzoyl]-5-{[4-oxo-6-(trifluoromethyl)-1,2,3-benzotriazin-3(4H)-yl]methyl}cyclopentanecarboxylic acid]
> 40000	990	1100	21	> 40000	O=C(O)[C@H]1[C@H](Cn2nnc3ccc(C(F)(F)F)cc3c2=O)CC[C@@H]1C(=O)c1ccc(OCCCC2CCCCC2)cc1 (racemic) [Example 56, (+/−)-(1RS,2RS,5SR)-2-{4-(3-Cyclohexylpropoxy)benzoyl}-5-{[4-oxo-6-(trifluoromethyl)-1,2,3-benzotriazin-3(4H)-yl]methyl}cyclopentanecarboxylic acid]
2100	1100	760	35	9300	O=C(O)[C@H]1[C@H](Cn2nnc3ccc(C(F)(F)F)cc3c2=O)CC[C@@H]1C(=O)c1ccc(SCc2ccc(Cl)c(Cl)c2)cc1 (racemic) [Example 79, (+/−)-(1RS,2RS,5SR)-2-{4-[(3,4-Dichlorobenzyl)sulphanyl]benzoyl}-5-{[4-oxo-6-(trifluoromethyl)-1,2,3-benzotriazin-3(4H)-yl]methyl}cyclopentanecarboxylic acid]
72	22	26	0.86	400	Cc1ccc2nnn(C[C@@H]3CC[C@H](C(=O)c4ccc(OCc5ccccc5)cc4)[C@H]3C(=O)O)c(=O)c2c1 (racemic) [Example 91, (+/−)-(1RS,2RS,5SR)-2-[4-(Benzyloxy)benzoyl]-5-[(6-methyl-4-oxo-1,2,3-benzotriazin-3(4H)-yl)methyl]cyclopentanecarboxylic acid]
